In ChEMBL document CHEMBL1139343, “Pharmacophore guided discovery of small-molecule human apurinic/apyrimidinic endonuclease 1 inhibitors” (J Med Chem, 2009):

Columns and labels:
[1] = target: DNA repair nuclease/redox regulator APEX1 (Homo sapiens, UniProt P27695); experiment: Inhibition of purified human recombinant APE1 expressed in Escherichia coli M15 cells
[2] = Inhibition of exonuclase 3
[3] = Selectivity index, IC50 for human recombinant APE1 over exonuclase 3
[4] = Inhibition of endonuclease 4
[5] = target: Human immunodeficiency virus type 1 integrase (Human immunodeficiency virus 1, UniProt Q7ZJM1); experiment: Inhibition of HIV1 integrase
Chain of Human immunodeficiency virus type 1 integrase (Q7ZJM1 whole entry): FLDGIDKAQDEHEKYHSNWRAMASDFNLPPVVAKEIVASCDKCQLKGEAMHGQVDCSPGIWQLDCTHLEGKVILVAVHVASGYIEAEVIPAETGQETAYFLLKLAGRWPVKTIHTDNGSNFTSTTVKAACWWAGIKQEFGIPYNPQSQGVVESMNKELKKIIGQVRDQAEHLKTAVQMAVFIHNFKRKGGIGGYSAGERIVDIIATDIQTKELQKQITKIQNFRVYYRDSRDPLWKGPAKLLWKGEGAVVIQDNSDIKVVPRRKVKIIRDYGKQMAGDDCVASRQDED

Chain of DNA repair nuclease/redox regulator APEX1 (P27695 whole entry): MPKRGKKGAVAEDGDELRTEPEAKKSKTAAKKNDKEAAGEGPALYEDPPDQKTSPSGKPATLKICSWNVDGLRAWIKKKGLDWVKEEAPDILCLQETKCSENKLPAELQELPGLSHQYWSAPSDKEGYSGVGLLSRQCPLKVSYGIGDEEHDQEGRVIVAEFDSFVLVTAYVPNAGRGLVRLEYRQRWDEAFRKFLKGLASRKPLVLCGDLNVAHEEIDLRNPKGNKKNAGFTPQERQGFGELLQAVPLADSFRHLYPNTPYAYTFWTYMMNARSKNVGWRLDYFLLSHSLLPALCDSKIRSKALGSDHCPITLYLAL

O=C(O)Cc1cc(S(=O)(=O)c2ccc(Sc3ccc(C(=O)O)cc3)cc2)ccc1C(=O)O
IC50 [1]: 4 µM | IC50 [2]: 90 µM | Ratio IC50 [3]: 23 | IC50 [4]: > 100 µM | IC50 [5]: > 100 µM

O=C(O)CCc1ccc(-c2ccc(Cl)cc2)n1CC(=O)O
IC50 [1]: 4 µM | IC50 [2]: > 100 µM | Ratio IC50 [3]: > 25 | IC50 [4]: > 100 µM | IC50 [5]: > 100 µM

CN(c1ccc(C(=O)Nc2ccc(F)cc2)cc1)S(=O)(=O)c1ccccc1
IC50 [1]: > 100 µM

C/C(CCc1ccc2c(c1)OCO2)=N\N=C1/NC(=O)CC(C(=O)O)S1 (stereo not drawn)
IC50 [1]: 50 µM

Cc1oc(C(=O)O)cc1CSCC(C)C(=O)O (stereo not drawn)
IC50 [1]: 22 µM

Cc1cc(S(=O)(=O)NC2CCCC2)ccc1-n1cnnn1
IC50 [1]: > 100 µM

O=C(O)c1cccc(NC(=O)C2CCCCC2C(=O)O)c1 (stereo not drawn)
IC50 [1]: 55 µM

CCNC(=O)c1cc(S(=O)(=O)NCCC(=O)O)c(C)s1
IC50 [1]: > 100 µM

O=C(O)CNC(=O)c1cc(=O)[nH]c(=O)[nH]1
IC50 [1]: > 100 µM

Cc1ccc(-c2noc(CNC(=O)CN(C)S(=O)(=O)c3ccc4ccccc4c3)n2)cc1
IC50 [1]: > 100 µM

Cc1nc2ccc(C(=O)O)cc2c(O)c1CCC(=O)O
IC50 [1]: 20 µM

CCCS(=O)(=O)N1CCCC(c2nc(-c3ccc(C(C)C)cc3)no2)C1 (stereo not drawn)
IC50 [1]: > 100 µM

COc1ccc(NS(=O)(=O)c2ccc(NC(=O)c3ccccc3C(=O)O)cc2)nn1
IC50 [1]: > 100 µM

O=C(O)CCSc1nnc(SCCC(=O)O)s1
IC50 [1]: 17 µM

CCS(=O)(=O)N1CCN(S(=O)(=O)c2ccc(C(=O)O)cc2)CC1
IC50 [1]: > 100 µM

O=C(O)c1cccc(NS(=O)(=O)c2cccc3nsnc23)c1
IC50 [1]: > 100 µM

C=CCSc1nnc(-c2ccc(NS(C)(=O)=O)cc2)n1C
IC50 [1]: > 100 µM

COc1cc(S(=O)(=O)NC2CCCCC2C)ccc1-n1cnnn1 (stereo not drawn)
IC50 [1]: > 100 µM

O=C(CN1C(=O)c2ccccc2S1(=O)=O)Nc1ccc(Cl)c(C(=O)O)c1
IC50 [1]: > 100 µM

O=C(CN(Cc1cccs1)S(=O)(=O)c1ccc(S(=O)(=O)NC2CC2)cc1)Nc1ccccc1
IC50 [1]: > 100 µM

O=C(O)Cn1c(CCCCc2nc3ccccc3n2CC(=O)O)nc2ccccc21
IC50 [1]: 4 µM | IC50 [2]: 80 µM | Ratio IC50 [3]: 20 | IC50 [4]: > 100 µM | IC50 [5]: > 100 µM

CC1CCCCC1N(Cc1ccccc1F)S(=O)(=O)c1ccc(S(=O)(=O)N(C)C)cc1 (stereo not drawn)
IC50 [1]: > 100 µM

CN(C)c1ccc(-c2noc(C3CCN(S(=O)(=O)c4cccc(C(=O)O)c4)CC3)n2)cc1
IC50 [1]: 40 µM

O=C(O)c1cccc(Nc2nc3ccccc3nc2NS(=O)(=O)c2cccc([N+](=O)[O-])c2)c1
IC50 [1]: > 100 µM

NC(=O)CSc1nc2ccc(NC(=O)c3ccccc3C(=O)O)cc2s1
IC50 [1]: 27 µM

COc1ccccc1C(=O)NCC(C)(C)CNC1=NS(=O)(=O)c2ccccc21
IC50 [1]: > 100 µM

CCS(=O)(=O)Nc1cc2c(C(C)=O)c(C)n(S(=O)(=O)CC)c2cc1C
IC50 [1]: > 100 µM

CC1([N+](=O)[O-])CN(CCC(=O)O)CN(CCC(=O)O)C1
IC50 [1]: 50 µM

CCn1c(SCCN2CCCC2)nnc1C1CCCN(S(C)(=O)=O)C1 (stereo not drawn)
IC50 [1]: > 100 µM

O=C(Nc1nnc(CCS(=O)(=O)c2ccc3ccccc3c2)s1)c1ccccc1Cl
IC50 [1]: > 100 µM

C=CCN1C(=O)C(Cc2ccccc2)S/C1=N/c1ccc(C(=O)O)cc1 (stereo not drawn)
IC50 [1]: 100 µM

Cc1ccccc1NC(=O)c1cccc(NC(=O)CCC(=O)O)c1
IC50 [1]: 35 µM

CC1(C)C(C(=O)O)N2C(=O)C(NC(=O)C(C(=O)O)c3ccccc3)C2[S+]1[O-] (stereo not drawn)
IC50 [1]: > 100 µM

O=C(O)c1cccc(S(=O)(=O)N2CCCC(c3nc(O)c4nnn(Cc5ccc(F)cc5)c4n3)C2)c1 (stereo not drawn)
IC50 [1]: 33 µM

COC(=O)C1C(=O)c2c([nH]c(C(=O)OC3CCCCC3)c2C)CC1C (stereo not drawn)
IC50 [1]: > 100 µM

O=C(O)CNS(=O)(=O)c1ccc2c(c1)C(=O)c1cc(S(=O)(=O)NCC(=O)O)ccc1-2
IC50 [1]: 50 µM

O=C(O)CN1C(=O)/C(=C\c2ccc(-c3cccc(C(=O)O)c3)o2)SC1=S
IC50 [1]: 6 µM | IC50 [2]: 70 µM | Ratio IC50 [3]: 12 | IC50 [4]: > 100 µM | IC50 [5]: > 100 µM

Cc1cc(C(=O)O)c(CSCc2cc(C(=O)O)c(C)o2)o1
IC50 [1]: > 100 µM

Cc1oc(C)c(C(=O)O)c1COc1ccccc1C(=O)O
IC50 [1]: 6 µM | IC50 [2]: 98 µM | Ratio IC50 [3]: 16 | IC50 [4]: > 100 µM | IC50 [5]: > 100 µM

COc1ccc(/C=C/C(=O)O)cc1S(=O)(=O)NCc1cccnc1
IC50 [1]: > 100 µM

CC(C)c1nnc(NC(=O)C2CCCN2S(=O)(=O)c2ccc(F)cc2)s1 (stereo not drawn)
IC50 [1]: > 100 µM

O=C(O)CN1C(=O)/C(=C2\SC(=S)NC2=O)c2ccccc21
IC50 [1]: 9 µM

Nc1ncnc2[nH]c(SCCC(=O)O)nc12
IC50 [1]: 20 µM

O=S(=O)(O)CCCSc1sc2ccccc2[n+]1CCCS(=O)(=O)O
IC50 [1]: > 100 µM

Cc1cc(S(=O)(=O)N2CCOCC2)ccc1OCC(=O)O
IC50 [1]: 100 µM

O=C(Nc1ccccc1O)c1cc(S(=O)(=O)N2CCCCC2)ccc1Cl
IC50 [1]: > 100 µM

Cc1c(OS(=O)(=O)c2ccccc2)cccc1OS(=O)(=O)c1ccccc1
IC50 [1]: > 100 µM

O=P(O)(O)c1ccccc1OCCOc1ccccc1P(=O)(O)O
IC50 [1]: > 100 µM

CS(=O)(=O)Nc1nc(CC(=O)O)cs1
IC50 [1]: > 100 µM

Cc1nc(N(CCC(=O)O)CCC(=O)O)sc1C(C)(C)C
IC50 [1]: 60 µM

O=C(CCc1nc(-c2ccc(Cl)cc2)no1)Nc1nnn[nH]1
IC50 [1]: > 100 µM

Cc1cc(NC(=O)CCC(=O)O)ccc1NC(=O)c1cccs1
IC50 [1]: 100 µM

Cn1c(CCNS(=O)(=O)c2ccccc2)nnc1SCc1cccnc1
IC50 [1]: > 100 µM

Cc1ccc(S(=O)(=O)Nc2ccc(NC(=O)CN3CCCCC3)c(Cl)c2)cc1
IC50 [1]: > 100 µM

CS(=O)(=O)NCc1nnc(SCC(=O)N2CCCCCC2)n1-c1ccc(F)cc1
IC50 [1]: > 100 µM

O=C(O)CCN1C(=O)/C(=C2/C(=O)N(CC(=O)O)c3ccccc32)SC1=S
IC50 [1]: 6 µM | IC50 [2]: 60 µM | Ratio IC50 [3]: 10 | IC50 [4]: > 100 µM | IC50 [5]: > 100 µM

CCCNS(=O)(=O)c1ccc(OCC(=O)NCC2CCCO2)c(C)c1 (stereo not drawn)
IC50 [1]: > 100 µM

Cc1ccc(-c2nnc3c4ccccc4c(C)nn23)cc1S(=O)(=O)N1CCOCC1
IC50 [1]: > 100 µM

CCNC(=O)c1cc(S(=O)(=O)NCc2ccc(C(=O)O)cc2)c(C)s1
IC50 [1]: > 100 µM
